Measured values from US6407103B2, “Indeno [1,2-c] pyrazol-4-ones and their uses” (Bristol-Myers Squibb Pharma Company, priority 1998, dated 2002).

| melting point [°C] | SMILES |
| --- | --- |
| > 300 | Cn1ccc(-c2[nH]nc3c2C(=O)c2c(NC(N)=O)cccc2-3)c1 [Example CXII, 3-(1-methyl-3-pyrrolyl)-5-(carbamoylamino)indeno[1,2-c]pyrazol-4-one] |
| 224 | CC(C)c1[nH]nc2c1C(=O)c1c(NC(=O)CN3CCC(C(N)=O)CC3)cccc1-2 [Example CXV, 3-(i-propyl)-5-((4-carbamoylpiperidino)acetamido)indeno [1,2-c]pyrazol-4-one] |
| 174 | CCc1[nH]nc2c1C(=O)c1c(NC(=O)CN3CCC(CN)CC3)cccc1-2 [Example CXVII, 3-(ethyl)-5-(4-(aminomethyl)piperidinoacetamido)indeno [1,2-c]pyrazol-4-one] |
| 218 | CC(C)c1[nH]nc2c1C(=O)c1c(NC(=O)CN3CCC(CN)CC3)cccc1-2 [Example CXVIII, 3-(i-propyl)-5-(4-(aminomethyl)piperidinoacetamido)indeno [1,2-c]pyrazol-4-one] |
| 231 | CC(C)c1[nH]nc2c1C(=O)c1c(NC(=O)NN3CCN(C)CC3)cccc1-2 [Example CXXI, 3-(i-propyl)-5-((4-methylpiperazino)carbamoylamino)indeno [1,2-c]pyrazol-4-one] |
| 289 | COc1ccc(-c2[nH]nc3c2C(=O)c2c(NC(=O)C4CC4)cccc2-3)cc1 [Example III, 3-(4-methoxyphenyl)-5-(cyclopropanecarboxamido)indeno[1,2-c]pyrazol-4-one] |
| 282 | CCCC(=O)Nc1cccc2c1C(=O)c1c-2n[nH]c1-c1ccc(OC)cc1 [Example IX, 3-(4-methoxyphenyl)-5-(butanamido)indeno[1,2-c]pyrazol-4-one] |
| > 300 | CN(C)c1ccc(-c2[nH]nc3c2C(=O)c2c(NC(=O)CN4CCOCC4)cccc2-3)cc1 [Example LV, 3-(4-(N,N-dimethylamino)phenyl)-5-(morpholinoacetamido)indeno[1,2-c]pyrazol-4-one] |
| > 300 | CC(=O)Nc1cccc2c1C(=O)c1c-2n[nH]c1-c1ccc(N2CCOCC2)cc1 [Example LVIII, 3-(4-morpholinophenyl)-5-(acetamido)indeno[1,2-c]pyrazol-4-one] |
| 294 | CCc1ccc(-c2[nH]nc3c2C(=O)c2c(NC(C)=O)cccc2-3)cc1 [Example LXI, 3-(4-ethylphenyl)-5-(acetamido)indeno[1,2-c]pyrazol-4-one] |

Continued, compound first:

| SMILES | melting point [°C] |
| --- | --- |
| CC(C)(C)OC(=O)N1CCCC(C(=O)N2CCC(c3[nH]nc4c3C(=O)c3c(NC(=O)NN5CCOCC5)cccc3-4)CC2)C1 (stereo not drawn) [Example CCLXXXIX, 3-(1(1-(t-butoxycarbonyl)piperidin-3-ylcarbonyl)piperidin-4-yl)-5-(morpholinocarbamoylamino)indeno[1,2-c]pyrazol-4-one] | 196 |
| CC(C)(C)OC(=O)N[C@H]1CC[C@H](C(=O)N2CCC(c3[nH]nc4c3C(=O)c3c(NC(=O)NN5CCOCC5)cccc3-4)CC2)CC1 [Example CCLXXXVI, 3-(1-(trans-4-(t-butoxycarbonylamino)cyclohexylcarbonyl)piperidin-4-yl)-5-(morpholinocarbamoylamino)indeno[1,2-c]pyrazol-4-one] | 178 |
| CC(C)(C)OC(=O)N1CCN(c2ccc(-c3[nH]nc4c3C(=O)c3c(NC(=O)NN5CCOCC5)cccc3-4)cc2)CC1 [Example CCX, 3-(4-(4-t-butoxycarbonylpiperazino)phenyl)-5-(morpholinocarbamoylamino)indeno[1,2-c]pyrazol-4-one] | 242 |
| CC(C)(C)OC(=O)Nc1ccc(C(=O)N2CCC(c3[nH]nc4c3C(=O)c3c(NC(=O)NN5CCOCC5)cccc3-4)CC2)cc1 [Example CCXCIX, 3-(1-(4-(t-butoxycarbonylamino)phenylcarbonyl)piperidin-4-yl)-5-(morpholinocarbamoylamino)indeno[1,2-c]pyrazol-4-one] | 212 |
| CC(C)(C)OC(=O)Nc1ccc(CC(=O)N2CCC(c3[nH]nc4c3C(=O)c3c(NC(=O)NN5CCOCC5)cccc3-4)CC2)cc1 [Example CCXCVI, 3-(1-(4-(t-butoxycarbonylamino)benzylcarbonyl)piperidin-4-yl)-5-(morpholinocarbamoylamino)indeno[1,2-c]pyrazol-4-one] | 177 |
| NC(=O)Nc1cccc2c1C(=O)c1c-2n[nH]c1-c1csc(Cl)c1 [Example CI, 3-(5-chloro-3-thienyl)-5-(carbamoylamino)indeno[1,2-c]pyrazol-4-one] | > 300 |
| Cc1cc(-c2[nH]nc3c2C(=O)c2c(NC(N)=O)cccc2-3)c(C)s1 [Example CII, 3-(2,5-dimethyl-3-thienyl)-5-(carbamoylamino)indeno[1,2-c]pyrazol-4-one] | > 280 |
| NC(=O)Nc1cccc2c1C(=O)c1c-2n[nH]c1-c1ccco1 [Example CIII, 3-(2-furanyl)-5-(carbamoylamino)indeno[1,2-c]pyrazol-4-one] | 278 |
| CCOC(=O)c1ccc(-c2[nH]nc3c2C(=O)c2c(NC(=O)NN4CCN(C)CC4)cccc2-3)s1 [Example CXXII, 3-(5-carboethoxy-2-thienyl)-5-((4-methylpiperazino)carbamoylamino)indeno [1,2-c]pyrazol-4-one] | 249 |
| CN1CCN(NC(=O)Nc2cccc3c2C(=O)c2c-3n[nH]c2-c2ccc(C(=O)O)s2)CC1 [Example CXXIII, 3-(5-carboxyl-2-thienyl)-5-((4-methylpiperazino)carbamoylamino)indeno [1,2-c]pyrazol-4-one] | 270 |
| Cc1cc(-c2[nH]nc3c2C(=O)c2c(NC(=O)NN4CCN(C)CC4)cccc2-3)c(C)s1 [Example CXXIV, 3-(2,5-dimethyl-3-thienyl)-5-((4-methylpiperazino)carbamoylamino)indeno [1,2-c]pyrazol-4-one] | 250 |
| COc1ccc(-c2[nH]nc3c2C(=O)c2c(NC(C)=O)cccc2-3)cc1 [Example I, 3-(4-methoxyphenyl)-5-(acetamido)indeno[1,2-c]pyrazol-4-one] | 268 |
| O=CNc1cccc2c1C(=O)c1c-2n[nH]c1-c1ccncc1 [Example L, 3-(4-pyridyl)-5-(formamido)indeno [1,2-c]pyrazol-4-one] | > 300 |
| COc1ccc(-c2[nH]nc3c2C(=O)c2c(NC(N)=O)cccc2-3)cc1 [Example LXIII, 3-(4-methoxyphenyl)-5-(carbamoylamino)indeno[1,2-c]pyrazol-4-one] | > 300 |
| CNC(=O)Nc1cccc2c1C(=O)c1c-2n[nH]c1-c1ccc(OC)cc1 [Example LXV, 3-(4-methoxyphenyl)-5-((methylcarbamoyl)amino)indeno[1,2-c]pyrazol-4-one] | > 300 |
| COc1ccc(-c2[nH]nc3c2C(=O)c2c(NC(=O)NN4CCOCC4)cccc2-3)cc1 [Example LXVI, 3-(4-methoxyphenyl)-5-((morpholinocarbamoyl)amino)indeno[1,2-c]pyrazol-4-one] | > 300 |
| COc1ccc(-c2[nH]nc3c2C(=O)c2c(NC(=O)NN4CCN(C)CC4)cccc2-3)cc1 [Example LXVIII, 3-(4-methoxyphenyl)-5-((4-methylpiperazinocarbamoyl)amino)indeno[1,2-c]pyrazol-4-one] | > 300 |
